Data on 13 compounds can be found in PMC4105438, “Novel Benzoxazine-Based Aglycones Block Glucose Uptake In Vivo by Inhibiting Glycosidases” (PLoS ONE, 2014).

Several values for one entry are separate records, joined by “and”; a condition that tells them apart may be missing. Identical values can stand only once. A value given as a limit tells only on which side of the number the result lay.

Usually IC50 stands for the point on the concentration scale where inhibition reaches its midpoint. For orientation: melting point means the temperature of the solid-liquid transition.

The target of data set [1] is rat intestinal maltase. Put plainly: Intestinal α-glucosidase inhibitory assay, maltose as substrate. In kind it is biochemical. As to conditions: rat intestinal acetone powder, maltose 37 mM, 30 min. The method, then:
Intestinal α-glucosidase activity was determined by measuring the amount of glucose hydrolyzed from maltose or sucrose. Briefly, rat intestinal acetone powder was homogenized in 0.9% saline and the suspension was centrifuged at 10,000 g for 30 min at 4°C and the supernatant obtained was used as enzyme source. […] After the respective incubation period, reaction was terminated by keeping the samples in boiling water bath for 10 min. The concentration of glucose released from the reaction mixtures was determined by using Glucose oxidase (GOD POD) kit according to the manufacturer’s protocol. Results were expressed as percentage inhibition of intestinal maltase/sucrase activity.

For data set [2], the system named is overnight fasted Wistar rats. Put plainly: Oral sucrose tolerance test. In kind it is in vivo, rat. Conditions: acarbose 3 mg/kg oral, sucrose 3 g/kg, compared to sucrose control. The source says: (§1) Adult Wistar rats weighing 150–180 g were collected from the University Central Animal Facility and housed under a controlled environment. All animal experiments were approved by the Institutional Animal Ethical Committee (Order No : MGZ/2620/2011-12 Dated 31-01-2012; UOM/IAEC/18/2011), Department of Studies in Zoology, University of Mysore, Mysore and were in accordance with the guidelines of the Committee for the Purpose of Control and Supervision of Experiments on Animals (CPCSEA).
(§2) The experimental animals were randomly divided into 11 groups each consisting of 5 rats. […] Blood was collected from the tail vein to the tubes containing anticoagulant (2.5% trisodium citrate and 1.37% citric acid in the ratio 1∶5; anti-coagulant: blood) at time point 0 (just before sucrose/maltose administration), and subsequently at 30, 60, 90, 120 and 180 min after substrate (sucrose/maltose) administration. Plasma was separated by centrifuging the samples at 2000 rpm for 10 min and stored at −20°C until analysis. Plasma glucose concentration was determined by using the Glucose oxidase (GOD POD) kit according to the manufacturer’s protocol.

The subject of data set [3] is overnight fasted Wistar rats. Briefly: Oral maltose tolerance test. In kind it is in vivo, rat. As to conditions: acarbose 3 mg/kg oral, maltose 3 g/kg, compared to maltose control.
From the text: as §1, §2

Data set [4] addresses T1, α-Glucosidase (Saccharomyces cerevisiae, UniProt P53341).
T1 construct: purchased SRL, Mumbai (India)
Briefly: biochemical. As to conditions: 0–100 µM, pre-incubation 10 min 37°C, pH 6.9; NS = not significant. The protocol: Porcine pancreatic α-Amylase and Yeast α-Glucosidase were purchased from SRL, Mumbai (India). Glucose oxidase (GOD POD) kit was purchased from Piramal HealthCare Ltd, Mumbai (India). All other chemicals used were of analytical grade and purchased from Sigma Aldrich, St. Louis (USA) and SRL, Mumbai (India). All IR spectra were obtained in KBr disc on a Shimadzu FT-IR 157 Spectrometer. ^1H and ^13C NMR spectra were recorded on a Bruker WH-200 (400 MZ) spectrometer in CDCl3 or DMSO-d6 as solvent, using TMS as an internal standard and chemical shifts are expressed as ppm. Mass spectra were determined on a Shimadzu LC-MS. The elemental analyses were carried out using an Elemental Vario Cube CHNS rapid Analyzer. The progress of the reaction was monitored by TLC pre-coated silica gel G plates.
The α-glucosidase inhibitory activities of synthesized compounds were evaluated using the method developed by Tsujii et al.. Briefly, α-glucosidase was dissolved in phosphate buffer (50 mM, pH 6.9) and pre-treated with various concentrations of 1,3-benzoxazine derivatives (0–100 µM) independently for 10 min at 37°C. The reaction was initiated by the addition of 50 µL of 5 mM p-nitrophenyl- α -D-glucopyranoside solution in phosphate buffer (50 mM, pH 6.9). The enzyme reaction was carried out at 37°C for 30 min. The reaction was terminated by the addition of Na2CO3 (1 M). The enzymatic activity of α-glucosidase was quantified by measuring the absorption at 405 nm using a Varioskan multimode plate reader (Thermo Scientifics, USA). The inhibitory effect of compounds was defined as inhibitory activity (%) = (Abs Control – Abs Compound treated)/Abs Control ×100. Concentration-response assays were used to determine the potency (IC50) of 1,3-benzoxazine derivatives based on the logistic analysis of the concentration-response curve using Microsoft Excel.

Data set [5] has as its target T2, Porcine pancreatic α-amylase (Sus scrofa, UniProt P00690).
T2 construct: purchased SRL, Mumbai (India)
T2 sequence (P00690 16-511): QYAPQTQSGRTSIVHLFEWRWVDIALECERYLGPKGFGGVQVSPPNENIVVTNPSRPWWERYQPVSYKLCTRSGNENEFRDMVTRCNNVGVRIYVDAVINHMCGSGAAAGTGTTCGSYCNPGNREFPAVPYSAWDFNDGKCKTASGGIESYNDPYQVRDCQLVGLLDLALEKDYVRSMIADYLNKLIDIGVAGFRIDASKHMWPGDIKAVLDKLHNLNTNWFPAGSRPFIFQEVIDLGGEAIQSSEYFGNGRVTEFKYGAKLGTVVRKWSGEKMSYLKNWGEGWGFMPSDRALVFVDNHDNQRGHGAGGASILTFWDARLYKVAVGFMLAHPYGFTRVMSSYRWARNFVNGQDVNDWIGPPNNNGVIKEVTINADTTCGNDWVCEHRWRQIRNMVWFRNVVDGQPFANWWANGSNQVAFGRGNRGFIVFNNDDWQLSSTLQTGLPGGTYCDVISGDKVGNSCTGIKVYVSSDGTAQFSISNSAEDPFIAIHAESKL
Briefly: α-amylase inhibition assay (starch, DNS reagent). In kind it is biochemical. As to conditions: 0–100 µM, pre-incubation 10 min 37°C, pH 6.9; NS = not significant. The method, then:
Porcine pancreatic α-Amylase and Yeast α-Glucosidase were purchased from SRL, Mumbai (India). Glucose oxidase (GOD POD) kit was purchased from Piramal HealthCare Ltd, Mumbai (India). All other chemicals used were of analytical grade and purchased from Sigma Aldrich, St. Louis (USA) and SRL, Mumbai (India). […] Mass spectra were determined on a Shimadzu LC-MS. The elemental analyses were carried out using an Elemental Vario Cube CHNS rapid Analyzer. The progress of the reaction was monitored by TLC pre-coated silica gel G plates.
The α-amylase inhibition assay was performed according to a previous report. Porcine pancreatic α-amylase (3 units/mL) was dissolved in 0.1 M phosphate buffered saline, pH 6.9. […] The reaction was initiated by adding substrate solution (0.1% starch) to the incubation medium. After 10 min incubation, the reaction was stopped by adding 250 µL dinitrosalicylic (DNS) reagent (1% 3, 5-dinitrosalicylic acid, 0.2% phenol, 0.05% Na2SO3 and 1% NaOH in aqueous solution) to the reaction mixture. The reaction was terminated by keeping the reaction mixture in boiling water bath for 10 min. Thereafter, 250 µL of 40% potassium sodium tartarate solution was added to the mixtures to stabilize the colour. After cooling to room temperature in a cold water bath, the absorbance was recorded at 540 nm using a Varioskan multimode plate reader (Thermo Scientifics, USA). Acrabose was used as positive control. The percentage of inhibition was calculated using Abs Contol – Abs Sample ×100/Abs Control. Where Abs Control was the absorbance without sample, Abs sample was the absorbance of enzyme with compound.

T1 sequence (P53341 whole entry): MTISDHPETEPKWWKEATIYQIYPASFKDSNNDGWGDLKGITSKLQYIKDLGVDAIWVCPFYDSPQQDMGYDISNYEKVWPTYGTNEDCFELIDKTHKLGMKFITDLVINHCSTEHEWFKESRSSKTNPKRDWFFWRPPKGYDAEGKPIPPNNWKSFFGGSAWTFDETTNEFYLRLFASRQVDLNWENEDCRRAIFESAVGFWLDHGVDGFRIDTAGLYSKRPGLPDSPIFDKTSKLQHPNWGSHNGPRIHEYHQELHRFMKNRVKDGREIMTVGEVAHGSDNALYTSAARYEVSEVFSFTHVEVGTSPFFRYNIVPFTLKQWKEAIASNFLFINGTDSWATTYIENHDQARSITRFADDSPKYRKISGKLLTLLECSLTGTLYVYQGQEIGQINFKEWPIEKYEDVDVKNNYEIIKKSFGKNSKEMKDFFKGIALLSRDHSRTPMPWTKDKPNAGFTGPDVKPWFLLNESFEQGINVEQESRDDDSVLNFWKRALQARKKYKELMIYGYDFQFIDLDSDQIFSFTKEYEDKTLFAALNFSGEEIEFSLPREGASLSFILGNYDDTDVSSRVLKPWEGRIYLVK

In data set [1], `C[C@H]1O[C@H](O[C@H]2[C@H](O)[C@@H](O)[C@@H](O[C@H]3[C@H](O)[C@@H](O)C(O)O[C@@H]3CO)O[C@@H]2CO)[C@H](O)[C@@H](O)[C@@H]1N[C@H]1C=C(CO)[C@@H](O)[C@H](O)[C@H]1O` (some centres unmarked) [Acarbose, reference compound] showed an IC50 of 3.5 µM. In addition, the plasma glucose concentration result was “only significant at 60 and 90 min time points” in data set [2]; “significantly reduced the plasma glucose concentration at 30, 60, 90 min time intervals” in data set [3].

As for `Oc1ccc(C2Nc3ccccc3CO2)cc1` (centres unmarked) [compound 1, 4-(2,4-dihydro-1H-benzo[d][1,3]oxazin-2-yl)phenol], the melting point was 160 to 162 °C. In data set [4], this compound had an IC50 of 17.1 ± 0.1 µM. Half-maximal inhibition in data set [5] (IC50) was put at 20.4 ± 0.2 µM.

In the case of `c1ccc2c(c1)COC(c1c[nH]c3ccccc13)N2` (centres unmarked) [compound 2, 2-(1H-indol-3-yl)-2,4-dihydro-1H-benzo[d][1,3]oxazine], the figures for the IC50 in data set [4] and in data set [5] were 32 ± 0.2 µM and 59.2 ± 1 µM, respectively.

In the case of `Cc1[nH]c2ccccc2c1C1Nc2ccccc2CO1` (centres unmarked) [compound 3, 2-(2-methyl-1H-indol-3-yl)-2,4-dihydro-1H-benzo[d][1,3]oxazine], the IC50 in data set [4] turned out to be 21.6 ± 0.1 µM; in data set [5] it was 10.6 ± 0.3 µM.

On to `N#Cc1ccccc1-c1ccc(Cn2cc(C3Nc4ccccc4CO3)c3ccccc32)cc1` (centres unmarked) [compound 4], for which the IC50 in data set [4] and in data set [5] was > 100 µM throughout.

In turn, `O=c1c(C2Nc3ccccc3CO2)coc2ccccc12` (centres unmarked) [compound 5, 3-(2,4-dihydro-1H-benzo[d][1,3]oxazin-2-yl)-4H-chromen-4-one] yielded a melting point of 142 to 144 °C. Besides, the IC50 in data set [4] is > 100 µM. The compound further gave an IC50 in data set [5] of 23.3 ± 0.5 µM.

Regarding `CCCCc1nc(Cl)c(C2Nc3ccccc3CO2)[nH]1` (centres unmarked) [compound 6, 2-(2-butyl-4-chloro-1H-imidazol-5-yl)-2,4-dihydro-1H-benzo[d][1,3]oxazine], the melting point is 80 to 82 °C. In addition, the IC50 in data set [4] was 16 µM and 16.7 µM. This compound had an IC50 in data set [5] of 18.5 ± 0.1 µM.

Consider `Clc1ccc2c(c1)NC(c1c[nH]c3ccccc13)OC2` (centres unmarked) [compound 8, 7-chloro-2-(1H-indol-3-yl)-2,4-dihydro-1H-benzo[d][1,3]oxazine], for which the IC50 came to 27.7 ± 1 µM in data set [4] and 26.4 ± 0.5 µM in data set [5].

Turning to `Clc1ccc2c(c1)COC(c1c(-c3ccccc3)[nH]c3ccccc13)N2` (centres unmarked) [compound 9, 6-chloro-2-(2-phenyl-1H-indol-3-yl)-2,4-dihydro-1H-benzo[d][1,3]oxazine], the IC50 in data set [4] is 27.8 ± 0.2 µM; in data set [5], 22.2 ± 0.1 µM.

Compound `O=c1c(C2Nc3ccc(Cl)cc3CO2)coc2ccccc12` (centres unmarked) [compound 10, 3-(6-chloro-2,4-dihydro-1H-benzo[d][1,3]oxazin-2-yl)-4H-chromen-4-one] gave a melting point of 141 to 143 °C. This compound came in with an IC50 in data set [4] of 31.9 ± 0.8 µM. For the same compound, in data set [5], the IC50 was > 100 µM.

Regarding `Cc1ccc2c(c1)COC(c1c(C)[nH]c3ccccc13)N2` (centres unmarked) [compound 11, 6-methyl-2-(2-methyl-1H-indol-3-yl)-2,4-dihydro-1H-benzo[d][1,3]oxazine], the figures for the IC50 in data set [4] and in data set [5] were 23.8 ± 0.1 µM and > 100 µM, respectively.

On to `Cc1ccc2c(c1)COC(c1c(-c3ccccc3)[nH]c3ccccc13)N2` (centres unmarked) [compound 12, 6-methyl-2-(2-phenyl-1H-indol-3-yl)-2,4-dihydro-1H-benzo[d][1,3]oxazine], for which the IC50 worked out at 20.5 ± 0.5 µM in data set [4] and 17.6 ± 0.3 µM in data set [5].

As to `Cc1ccc2c(c1)COC(c1coc3ccccc3c1=O)N2` (centres unmarked) [compound 13, 3-(6-methyl-2,4-dihydro-1H-benzo[d][1,3]oxazin-2-yl)-4H-chromen-4-one], the melting point is 202 to 204 °C. The IC50 in data set [4] was > 100 µM. In data set [5], the IC50 was found to be 51 ± 0.3 µM.
